Experimental data published in US10758530B2, “Carboxamide derivatives useful as rsk inhibitors” (PHOENIX MOLECULAR DESIGNS, priority 2016, dated 2020).
“Also recorded” adds a separate entry of the source. Structures can show the parent of a compound that is named as a salt.

Tests used:
[1] = Solubility assessment (20 mg/ml solution, precipitate formation, pH strips); assay type: physicochemical; details: for Solubility, 20 mg/ml solution: dissolved in DMSO (100 mM); for pH of 20 mg/ml solution: dissolved in DMSO
Protocol: Solubility is an important property for therapeutic drug candidates. Poor solubility can lead to low bioavailability resulting in suboptimal drug delivery. It can also prevent the evaluation of test agents in animals because the concentration(s) needed to achieve the desired effect cannot be achieved to poor solubility. For solubility assessments, small molecules targeting RSK were compared. For these assessments, 100 mM solutions of the compounds dissolved in DMSO were diluted in DMEM growth media (Life Technologies) supplemented with fetal bovine serum (FBS, Life Technologies) and 100 units/ml penicillin and 100 units/mi streptomycin (Life Technologies) to make 20 mg/ml solutions. Once diluted, the solutions were vortexed and examined for the formation of precipitates. […] For Compound 26, a 100 mM solution of the compound dissolved in DMSO was diluted in phosphate buffered saline (Life Technologies) to make a 20 mg/ml solution. The stock of […] was chosen because this is the upper end of what would be required to dose mice for a range of studies including MTD, PK, PD and efficacy. The pH of this solution was determined to be 2, as previously described. […] At high concentrations some RSK inhibitors were highly soluble while others were not. Compound 0 is (R)—N-(1-benzyl-1H-pyrazol-4-yl)-9-methyl-6-oxo-6,7,8,9-tetrahydropyrido[3′,2′:4,5]pyrrolo[1,2-a]pyrazine-2-carboxamide. Compound 0 was not soluble, whereas Compounds 18, 20, 21, 25 and 26 were soluble under the same conditions (Table 5).

[2] = tested on: SUM149-PTXR; experiment: Monolayer growth inhibition, Alamar blue assay; assay type: cell-based; details: Homo sapiens, 120 h; TNBC, BRCA mutant; 5 days, single dose
Protocol: (§2) 1×10^3 cells per well were seeded for a final volume of 200 μl per well and plates were incubated for 5 days at 37° C. in a humidified incubator with 5% CO2. Following the incubation period, cell survival was quantified by Alamar blue assay (Life Technologies). Briefly, media from each well was replaced with 100 μl of phosphate buffer saline (PBS, Life Technologies) and cells were incubated with 5% Alamar blue, which incorporates a propriety redox indicator that changes colour in response to metabolic activity, for up to 2 hours. During this period of incubation, the absorbance at 570 nm and 600 nm was measured at various time points, depending on the cell line or sample. Percent survival was calculated by comparing the absorbance ratio of the test well to the control well multiplied by 100%, as indicated in the following formula:

[3] = tested on: SUM149-PTXR; experiment: Monolayer growth inhibition, crystal violet assay; assay type: cell-based; details: Homo sapiens, 120 h; TNBC, BRCA mutant; 5 days, single dose
[4] = tested on: All cell lines of Tables 7A/7B; experiment: Monolayer growth inhibition, crystal violet assay, range over all cell lines; assay type: cell-based; details: 120 h, read-out: IC50 Values - Crystal Violet (5 Days), Range, All
[5] = tested on: All cell lines of Tables 6A/6B; experiment: Monolayer growth inhibition, Alamar blue assay, range over all cell lines; assay type: cell-based; details: 120 h, read-out: IC50 Values - Alamar Blue (5 Days), Range, All
Protocol: as §2

[6] = tested on: CD274; experiment: CD274 (PD-L1 gene) expression in MDA-MB-231 cells; assay type: cell-based, Human; details: Compound 16 2 or 4 uM; Compound 18 1, 2, or 4 uM
Source text: (§1) A key feature of cancer is low immunogenicity. This can occur by several mechanisms that allow the cells to escape immune recognition. […] HLA-DRA is a member of MHC-II genes and CIITA is the master regulator of MHC II transcription. Thus it was surprising that CIITA, which would be expected to regulate MHC II gene expression, was not altered by RSK inhibition. […] HLA-DRA is important for immune recognition while PD-L1 is involved in immune checkpoints.

[7] = tested on: phosphorylated Y-box binding protein-1 (YB-1) at serine 102 (P-YB-1 S102); experiment: Immunoblotting of P-YB-1 (cell signalling inhibition) in MDA-MB-231 cells
Protocol: Generation of cellular extracts: Following desired experimental conditions, breast cancer cell lines grown and treated in 6 well plates or 100 mm culture dishes (Grenier Bio-One) were placed on ice and the supernatant from each well was removed and the cells were washed in cold PBS. Following removal of PBS, cells were exposed to radioimmunoprecipitation assay (RIPA) buffer (50 mM Tris-HCl (pH 8), 150 mM NaCl, 1% NP-40, 0.5% sodium deoxycholate, 0.1% SDS; Fisher Scientific) supplemented with 1% phosphatase inhibitor (Fisher Scientific) and 1% protease inhibitor (Fisher Scientific) for 10 minutes. Samples were transferred to eppendorf tubes, vortexed and then centrifuged at 14 000 rpm for 10 minutes. Supernatants were collected as whole cell lysates. For mouse tumour tissues, each sample was place in a 35 mm culture dish with complete RIPA lysis buffer. The samples were diced in the buffer on ice with a sterile scalpel (VWR) and the buffer and tissue were transferred to an eppendorf tube. The samples were left on ice for 10 minutes with periodic vortexing every 2 to 3 minutes. The samples were then transferred to a Qiashredder (Qiagen) and centrifuged at 14 000 rpm for 2 minutes. The flow through was transferred to a new eppendorf tube and the samples were centrifuged again at 14 000 rpm for 5 minutes. Supernatants were collected as whole cell lysates.
Immunoblotting: To begin, the protein content of the lysates was measured using the Bicinchoninic Acid (BCA) Protein Assay Kit (Pierce), which included a protein standard curve generated with bovine serum albumin. […] For certain immunoblots, bands of proteins of interest were scanned and band intensity ratios were determined by densitometric analysis (ImageJ). […] To assess whether cells are actively undergoing cell death, the activity of poly ADP ribose polymerase (PARP) (1:1000 CST) was also measured using the immunoblotting method.

[8] = tested on: HLA-DRA mRNA; experiment: HLA-DRA mRNA expression in MDA-MB-231 and JIMT-1 cells; assay type: cell-based, Human; details: Compound 16 2 or 4 uM; Compound 18 1, 2, or 4 uM
Source text: as §1

[9] = tested on: CIITA; experiment: CIITA mRNA expression in MDA-MB-231 and JIMT-1 cells; assay type: cell-based, Human; details: Compound 16 2 or 4 uM; Compound 18 1, 2, or 4 uM
Source text: as §1

[10] = tested on: CD274; experiment: CD274 (PD-L1 gene) expression in JIMT-1 cells; assay type: cell-based, Human; details: 1-20 uM
Source text: as §1

[11] = tested on: P-YB-1; experiment: Pharmacodynamics: P-YB-1 signalling in MDA-MB-231 xenograft tumors (immunoblotting); details: n=3 treated 3 days, n=9 treated 21 days
Protocol: For mouse tumour tissues, each sample was place in a 35 mm culture dish with complete RIPA lysis buffer. The samples were diced in the buffer on ice with a sterile scalpel (VWR) and the buffer and tissue were transferred to an eppendorf tube. The samples were left on ice for 10 minutes with periodic vortexing every 2 to 3 minutes. The samples were then transferred to a Qiashredder (Qiagen) and centrifuged at 14 000 rpm for 2 minutes. The flow through was transferred to a new eppendorf tube and the samples were centrifuged again at 14 000 rpm for 5 minutes. Supernatants were collected as whole cell lysates.
Immunoblotting: To begin, the protein content of the lysates was measured using the Bicinchoninic Acid (BCA) Protein Assay Kit (Pierce), which included a protein standard curve generated with bovine serum albumin. Appropriate volumes of samples and loading buffer (50 mM Tris-HCl (pH 6.8), 2% SDS, 10% glycerol, 1% 3-mercaptoethanol, 12.5 mM EDTA, 0.02% bromophenol blue) were mixed, ensuring that equal amounts of protein were loaded. For the majority of experiments in this study, 30 μg of protein per well was loaded. […] For certain immunoblots, bands of proteins of interest were scanned and band intensity ratios were determined by densitometric analysis (ImageJ). […]
Cell signalling was evaluated by immunoblotting. […]

[12] = diluted in DMEM, hydrochloride salt
[13] = diluted in PBS, hydrochloride salt

SMILES | Solubility, 20 mg/ml solution ([1]; diluted in DMEM) | IC50 [2] | IC50 [3] | IC50 [4] | IC50 [5] | also measured
C[C@@H]1CNC(=O)c2cc3ccc(NC(=O)c4cnn(Cc5ccccc5)c4)cc3n21 [Compound 11, (R)-1-benzyl-N-(4-methyl-1-oxo-1,2,3,4-tetrahydropyrazino[1,2-a]indol-7-yl)-1H-pyrazole-4-carboxamide] |  | 36.4 ± 11.9 µM | 44.6 ± 3.9 µM |  |  | 
C[C@@H]1CNC(=O)c2cc3ccc(NC(=O)c4cnn(Cc5ccccc5)c4)nc3n21 [Compound 15, (R)-1-benzyl-N-(9-methyl-6-oxo-6,7,8,9-tetrahydropyrido[3′,2′:4,5]pyrrolo[1,2-a]pyrazin-2-yl)-1H-pyrazole-4-carboxamide] |  | 9.2 ± 3 µM | 8.8 ± 2.2 µM | 5.9 to 21 µM | 3.6 to 21.3 µM | 
C[C@@H]1CNC(=O)c2cc3ccc(C(=O)Nc4cnn(Cc5cccc(N)c5)c4)nc3n21 [Compound 16, (R)—N-(1-(3-aminobenzyl)-1H-pyrazol-4-yl)-9-methyl-6-oxo-6,7,8,9-tetrahydropyrido[3′,2′:4,5]pyrrolo[1,2-a]pyrazine-2-carboxamide] |  | 2.5 ± 0.4 µM | 3.5 ± 1.2 µM | 1.2 to 13.3 µM | 0.9 to 17.4 µM | Levels of CD274 in MDA-MB-231 cells [6]: reduced levels of CD274; Loss of P-YB-1 ([7]; 0.01-1 uM, 96 hrs): dose dependent loss of P-YB-1; HLA-DRA mRNA levels [8]: elevated levels of HLA-DRA mRNA; mRNA expression of CIITA [9]: little effect
C[C@@H]1CNC(=O)c2cc3ccc(C(=O)Nc4cnn(Cc5ccccc5N)c4)nc3n21 [Compound 17, (R)—N-(1-(2-aminobenzyl)-1H-pyrazol-4-yl)-9-methyl-6-oxo-6,7,8,9-tetrahydropyrido[3′,2′:4,5]pyrrolo[1,2-a]pyrazine-2-carboxamide] |  | 4.2 ± 1.5 µM | 5.2 ± 0.6 µM | 1 to 8.9 µM | 1.2 to 12.6 µM | 
C[C@@H]1CNC(=O)c2cc3ccc(NC(=O)c4cnn(Cc5cccc(N)c5)c4)nc3n21 [Compound 19, (R)-1-(3-aminobenzyl)-N-(9-methyl-6-oxo-6,7,8,9-tetrahydropyrido[3′,2′:4,5]pyrrolo[1,2-a]pyrazin-2-yl)-1H-pyrazole-4-carboxamide] |  | 14.1 ± 4.3 µM | 13 ± 1.3 µM | 7.4 to 34 µM | 10.5 to 37.3 µM | 
C[C@@H]1CNC(=O)c2cc3ccc(C(=O)Nc4cnn(CC5CCN(C)CC5)c4)nc3n21 [Compound 20, (R)-9-methyl-N-(1-((1-methylpiperidin-4-yl)methyl)-1H-pyrazol-4-yl)-6-oxo-6,7,8,9-tetrahydropyrido[3′,2′:4,5]pyrrolo[1,2-a]pyrazine-2-carboxamide] | Soluble |  |  |  |  | pH of 20 mg/ml solution ([1]; diluted in DMEM): 8
C[C@@H]1CNC(=O)c2cc3ccc(C(=O)Nc4ccccc4C(N)=O)nc3n21 [Compound 21, (R)—N-(2-carbamoylphenyl)-9-methyl-6-oxo-6,7,8,9-tetrahydropyrido[3′,2′:4,5]pyrrolo[1,2-a]pyrazine-2-carboxamide] | Soluble | 1.5 ± 0.8 µM | 2 ± 0.2 µM | 1.1 to 11.3 µM | 1.2 to 14.7 µM | pH of 20 mg/ml solution ([1]; diluted in DMEM): 9
C[C@@H]1CNC(=O)c2cc3ccc(C(=O)Nc4cnn(Cc5ccc(F)cc5F)c4)nc3n21 [Compound 23, (R)—N-(1-(2,4-difluorobenzyl)-1H-pyrazol-4-yl)-9-methyl-6-oxo-6,7,8,9-tetrahydropyrido[3′,2′:4,5]pyrrolo[1,2-a]pyrazine-2-carboxamide] | Precipitate | 5.1 ± 4 µM | 5 ± 2.4 µM | 1.1 to 15 µM | 1.1 to 19.8 µM | 
C[C@@H]1CNC(=O)c2c(Cl)c3ccc(C(=O)Nc4cnn(Cc5ccccc5)c4)nc3n21 [Compound 24, (R)—N-(1-benzyl-1H-pyrazol-4-yl)-5-chloro-9-methyl-6-oxo-6,7,8,9-tetrahydropyrido[3′,2′:4,5]pyrrolo[1,2-a]pyrazine-2-carboxamide] | Precipitate | 3.4 ± 2.1 µM | 4.5 ± 1.4 µM | 0.3 to 9.1 µM | 0.5 to 12.3 µM | 
C[C@@H]1CNC(=O)c2cc3ccc(C(=O)Nc4cnn(Cc5ccc(N)cc5)c4)nc3n21 [Compound 25, (R)—N-(1-(4-aminobenzyl)-1H-pyrazol-4-yl)-9-methyl-6-oxo-6,7,8,9-tetrahydropyrido[3′,2′:4,5]pyrrolo[1,2-a]pyrazine-2-carboxamide hydrochloride salt] |  | 5.2 ± 4.2 µM |  |  |  | Loss of P-YB-1 ([7]; 0.01, 0.1, 1, or 10 uM, 24 hrs): dose dependent loss of P-YB-1; Solubility for systemic delivery in mice (qualitative) [1]: superior solubility; Solubility, 20 mg/ml solution [1, 12]: Soluble; pH of 20 mg/ml solution [1, 12]: 2; Tumors with reduced P-YB-1 signaling (3 and 21 days combined) [11]: 12/12
C[C@@H]1CNC(=O)c2cc3ccc(C(=O)Nc4cnn(Cc5ccc(CN)cc5)c4)nc3n21 [Compound 26, (R)—N-(1-(4-(aminomethyl)benzyl)-1H-pyrazol-4-yl)-9-methyl-6-oxo-6,7,8,9-tetrahydropyrido[3′,2′:4,5]pyrrolo[1,2-a]pyrazine-2-carboxamide hydrochloride salt] |  | 8.8 ± 2.5 µM | 6.5 ± 2.1 µM | 1.5 to 12.3 µM | 1.9 to 15.5 µM | Solubility, 20 mg/ml solution [1, 13]: Soluble; pH of 20 mg/ml solution [1, 13]: 2-9

The next lines start with results.

Solubility, 20 mg/ml solution ([1]; diluted in DMEM) | SMILES | IC50 [2] | IC50 [3] | IC50 [4] | IC50 [5] | also measured
not soluble; also recorded: Precipitate | C[C@@H]1CNC(=O)c2cc3ccc(C(=O)Nc4cnn(Cc5ccccc5)c4)nc3n21 [Compound 0, (R)—N-(1-benzyl-1H-pyrazol-4-yl)-9-methyl-6-oxo-6,7,8,9-tetrahydropyrido[3′,2′:4,5]pyrrolo[1,2-a]pyrazine-2-carboxamide, reference compound] |  |  |  |  | Solubility for systemic delivery in mice (qualitative) [1]: poor or nonexistent solubility
Soluble | C[C@@H]1CNC(=O)c2cc3ccc(C(=O)Nc4cnn(Cc5ccc(N)cc5)c4)nc3n21 [Compound 18, (R)—N-(1-(4-aminobenzyl)-1H-pyrazol-4-yl)-9-methyl-6-oxo-6,7,8,9-tetrahydropyrido[3′,2′:4,5]pyrrolo[1,2-a]pyrazine-2-carboxamide] |  |  |  |  | Levels of CD274 in MDA-MB-231 cells [6]: reduced levels of CD274; Loss of P-YB-1 ([7]; 0.01-1 uM, 96 hrs): dose dependent loss of P-YB-1; pH of 20 mg/ml solution ([1]; diluted in DMEM): 9; HLA-DRA mRNA levels [8]: elevated levels of HLA-DRA mRNA; CD274 in JIMT-1 cells [10]: inhibited CD274; mRNA expression of CIITA [9]: little effect
Precipitate | C[C@@H]1CNC(=O)c2cc3ccc(C(=O)Nc4cnn(Cc5ccc(C(F)(F)F)cc5)c4)nc3n21 [Compound 22, (R)-9-methyl-6-oxo-N-(1-(4-(trifluoromethyl)benzyl)-1H-pyrazol-4-yl)-6,7,8,9-tetrahydropyrido[3′,2′:4,5]pyrrolo[1,2-a]pyrazine-2-carboxamide] | 7.8 ± 4.6 µM | 8 ± 1.3 µM | 2.6 to 14.2 µM | 4.5 to 17.1 µM | 
